Test results from US12492173B2, “Herbicidal substituted N-tetrazolyl aryl carboxamides” (Bayer Aktiengesellschaft, priority 2019, dated 2025).

How the values were obtained:
Assay type in all cases: in vivo
Veronica persica = assay: Pre-emergence herbicidal action, VERPE; parameters: key to Herbicidal action against VERPE: % activity: 100 = plants have died, 0 = like control plants; conditions: for herbicidal activity VERPE: scored visually after 3 weeks vs untreated controls (100% = plants have died)
Outline: (§1)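 Greenhouse pre-emergence test: formulated compound (WP or EC) applied in water to the soil covering sown seeds, 600–800 l/ha, 0.2% wetting agent. Scored visually in percent at 3 weeks versus untreated plants.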

Amaranthus retroflexus = assay: Post-emergence herbicidal action, AMARE; parameters: key: % herbicidal action vs untreated; 100 = plants died, 0 = like control
Outline: (§2)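 Foliar application at the one-leaf stage of greenhouse-grown plants in sandy loam; compound applied as WP or EC in 600–800 l/ha water containing 0.2% wetting agent. Scores are visual percentages (0% like control, 100% plants died) taken after roughly 3 weeks.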

Pharbitis purpurea = assay: Post-emergence herbicidal action, PHBPU
Outline: as §2

Matricaria inodora = assay: Post-emergence herbicidal action, MATIN; parameters: key: % herbicidal action vs untreated; 100 = plants died, 0 = like control
Outline: as §2

Abutilon theophrasti = assay: Pre-emergence herbicidal action, ABUTH; conditions: dosage 320 g/ha, scored visually after 3 weeks vs untreated controls (100% = plants have died)
Outline: as §1

Echinochloa crus-galli = assay: Post-emergence herbicidal action, ECHCG; parameters: key: % herbicidal action vs untreated; 100 = plants died, 0 = like control
Outline: as §2

[1] = comparative experiment, post-emergence, 5 g of a.i./ha

Compound	herbicidal activity VERPE (Veronica persica; dosage 320 g/ha)	herbicidal activity ABUTH (Abutilon theophrasti)	herbicidal action AMARE (Amaranthus retroflexus; Dosage 80 g/ha)	herbicidal action PHBPU (Pharbitis purpurea; Dosage 80 g/ha)	herbicidal action MATIN (Matricaria inodora; Dosage 80 g/ha)	herbicidal action ECHCG (Echinochloa crus-galli; Dosage 80 g/ha)	other results
Cn1nnnc1NC(=O)c1ccc(C(F)(F)F)c(C[S+](C)[O-])c1Cl (racemic) [Example 1-297]	100%	100%					herbicidal action AMARE (Amaranthus retroflexus; post-emergence, dosage 80 g/ha): 90%; Herbicidal action against PHBPU (Pharbitis purpurea; [1]): 80; herbicidal action PHBPU (Pharbitis purpurea; post-emergence, dosage 80 g/ha): 100%; herbicidal action MATIN (Matricaria inodora; post-emergence, dosage 80 g/ha): 100%; herbicidal action ECHCG (Echinochloa crus-galli; post-emergence, dosage 80 g/ha): 100%
Cc1c(C(=O)Nc2nnnn2C)ccc(C(F)(F)F)c1C[S+](C)[O-] (centres unmarked) [Example 1-84]	100%	100%					herbicidal action AMARE (Amaranthus retroflexus; post-emergence, dosage 80 g/ha): 90%; herbicidal action PHBPU (Pharbitis purpurea; post-emergence, dosage 80 g/ha): 100%; herbicidal action MATIN (Matricaria inodora; post-emergence, dosage 80 g/ha): 100%; herbicidal action ECHCG (Echinochloa crus-galli; post-emergence, dosage 80 g/ha): 90%
Cc1c(C(=O)Nc2nnnn2C)ccc(C(F)(F)F)c1CS(C)(=O)=O [Example 1-85]	100%	100%	90	100	100	90	
CCSCc1c(C(F)(F)F)ccc(C(=O)Nc2nnnn2C)c1C [Example 1-86]	100%	100%					herbicidal action AMARE (Amaranthus retroflexus; post-emergence, dosage 80 g/ha): 80%; herbicidal action PHBPU (Pharbitis purpurea; post-emergence, dosage 80 g/ha): 90%; herbicidal action MATIN (Matricaria inodora; post-emergence, dosage 80 g/ha): 100%; herbicidal action ECHCG (Echinochloa crus-galli; post-emergence, dosage 80 g/ha): 80%
CSCc1c(C(F)F)ccc(C(=O)Nc2nnnn2C)c1C [Example 1-107, 4-(difluoromethyl)-2-methyl-3-[(methylsulfanyl)methyl]-N-(1-methyl-1H-tetrazol-5-yl)benzamide]	100%	100%	90	80	90	90	Herbicidal action against ECHCG (Echinochloa crus-galli; [1]): 80
Cc1c(C(=O)Nc2nnnn2C)ccc(C(F)F)c1CS(C)(=O)=O [Example 1-109]	80%	100%	100	100	100	100	Herbicidal action against AMARE (Amaranthus retroflexus; [1]): 100
COc1c(C(=O)Nc2nnnn2C)ccc(C(F)(F)F)c1CSC [Example 1-134]	100%	100%	100	100	100	100	Herbicidal action against AMARE (Amaranthus retroflexus; post-emergence, dosage 80 g/ha): 100; Herbicidal action against PHBPU (Pharbitis purpurea; post-emergence, dosage 80 g/ha): 90; Herbicidal action against MATIN (Matricaria inodora; [1]): 90; Herbicidal action against MATIN (Matricaria inodora; post-emergence, dosage 80 g/ha): 100; Herbicidal action against ECHCG (Echinochloa crus-galli; post-emergence, dosage 80 g/ha): 90
CSCc1c(C(F)(F)F)ccc(C(=O)Nc2nnnn2C)c1SC [Example 1-161]	100%	100%	100	90	100	90	
CCSCc1c(C(F)F)ccc(C(=O)Nc2nnnn2C)c1SCC [Example 1-191]	100%	100%	80	80	90	100	
CSCc1c(C(F)(F)F)ccc(C(=O)Nc2nnnn2C)c1F [Example 1-242]	100%	100%	100	100	90	100	
Cn1nnnc1NC(=O)c1ccc(C(F)(F)F)c(C[S+](C)[O-])c1F (centres unmarked) [Example 1-243]	100%	100%	90	100	100	100	
Cn1nnnc1NC(=O)c1ccc(C(F)(F)F)c(CS(C)(=O)=O)c1F [Example 1-244]	100%	100%	90	100	100	90	
Cc1ccc(C(=O)Nc2nnnn2C)c(Cl)c1CS(C)(=O)=O [Example 1-289]	100%	90%	100	90	100	100	
CSCc1c(C(F)(F)F)ccc(C(=O)Nc2nnnn2C)c1Cl [Example 1-296]	100%	100%					Herbicidal action against AMARE (Amaranthus retroflexus; [1]): 60; herbicidal action AMARE (Amaranthus retroflexus; post-emergence, dosage 80 g/ha): 100%; herbicidal action PHBPU (Pharbitis purpurea; post-emergence, dosage 80 g/ha): 100%; herbicidal action MATIN (Matricaria inodora; post-emergence, dosage 80 g/ha): 100%; herbicidal action ECHCG (Echinochloa crus-galli; post-emergence, dosage 80 g/ha): 100%
Cn1nnnc1NC(=O)c1ccc(C(F)(F)F)c(CS(C)(=O)=O)c1Cl [Example 1-298]	100%	100%					Herbicidal action against AMARE (Amaranthus retroflexus; [1]): 100; herbicidal action AMARE (Amaranthus retroflexus; post-emergence, dosage 80 g/ha): 100%; herbicidal action PHBPU (Pharbitis purpurea; post-emergence, dosage 80 g/ha): 100%; Herbicidal action against MATIN (Matricaria inodora; [1]): 100; herbicidal action MATIN (Matricaria inodora; post-emergence, dosage 80 g/ha): 100%; herbicidal action ECHCG (Echinochloa crus-galli; post-emergence, dosage 80 g/ha): 90%
CCS(=O)(=O)Cc1c(C(F)(F)F)ccc(C(=O)Nc2nnnn2C)c1Cl [Example 1-301]	100%	100%	80	100	90	90	
C=CCSCc1c(C(F)(F)F)ccc(C(=O)Nc2nnnn2C)c1Cl [Example 1-308]	100%	100%					herbicidal action AMARE (Amaranthus retroflexus; post-emergence, dosage 80 g/ha): 100%; herbicidal action PHBPU (Pharbitis purpurea; post-emergence, dosage 80 g/ha): 100%; herbicidal action MATIN (Matricaria inodora; post-emergence, dosage 80 g/ha): 100%; herbicidal action ECHCG (Echinochloa crus-galli; post-emergence, dosage 80 g/ha): 100%
CSCc1c(C(F)(F)F)ccc(C(=O)Nc2nnnn2C)c1Br [Example 1-380]	100%	100%					herbicidal action AMARE (Amaranthus retroflexus; post-emergence, dosage 80 g/ha): 80%; herbicidal action PHBPU (Pharbitis purpurea; post-emergence, dosage 80 g/ha): 90%; herbicidal action MATIN (Matricaria inodora; post-emergence, dosage 80 g/ha): 90%; herbicidal action ECHCG (Echinochloa crus-galli; post-emergence, dosage 80 g/ha): 90%
Cn1nnnc1NC(=O)c1ccc(C(F)(F)F)c(C[S+](C)[O-])c1Br (centres unmarked) [Example 1-381]	100%	100%					herbicidal action AMARE (Amaranthus retroflexus; post-emergence, dosage 80 g/ha): 100%; herbicidal action PHBPU (Pharbitis purpurea; post-emergence, dosage 80 g/ha): 100%; herbicidal action MATIN (Matricaria inodora; post-emergence, dosage 80 g/ha): 90%; herbicidal action ECHCG (Echinochloa crus-galli; post-emergence, dosage 80 g/ha): 90%
Cn1nnnc1NC(=O)c1ccc(C(F)(F)F)c(CS(C)(=O)=O)c1Br [Example 1-382, 2-bromo-3-[(methylsulfonyl)methyl]-N-(1-methyl-1H-tetrazol-5-yl)-4-(trifluoromethyl)benzamide]	100%	100%	100	100	100	90	Herbicidal action against VERPE (Veronica persica; comparative experiment, 20 g of a.i./ha): 100
Cn1nnnc1NC(=O)c1ccc(Cl)c(CS(C)(=O)=O)c1Cl [Example 1-561]	90%	100%	100	100	100	100	
CCn1nnnc1NC(=O)c1ccc(S(C)(=O)=O)c(CS(C)(=O)=O)c1C [Example 2-39]			100	90	80	90	herbicidal action VERPE (Veronica persica; dosage 320 g/ha): 100%
CCn1nnnc1NC(=O)c1ccc(C(F)F)c(CSC)c1C [Example 2-107]	100%	100%	90	90	90	90	
CCn1nnnc1NC(=O)c1ccc(C(F)(F)F)c(C[S+](C)[O-])c1OC (centres unmarked) [Example 2-135]	100%	100%	100	100	100	100	
CCn1nnnc1NC(=O)c1ccc(C)c(CSC)c1Cl [Example 2-287]	100%		90	90	100	100	
CCCn1nnnc1NC(=O)c1ccc(C(F)(F)F)c(CS(C)(=O)=O)c1OC [Example 3-136]	100%	100%	100	90		100	
CCCn1nnnc1NC(=O)c1ccc(C(F)F)c(C[S+]([O-])CC)c1Cl (centres unmarked) [Example 3-324]		100%		100		100	
CCCn1nnnc1NC(=O)c1ccc(C(F)(F)F)c(CSC)c1Br [Example 3-380]	90%	100%		90	100	90	
